# Literature values as cited in patent US20090029020A1, “CYCLODEXTRIN INCLUSION COMPLEXES AND METHODS OF PREPARING SAME” (CARGILL, INCORPORATED, priority 2005, published 2009).
# Where two headings read alike, the source gives them in different places. Residues, ends and D or L forms follow the SMILES beside them.
# Details: octanol/water partition coefficient
smiles,measurement,setting,value
CCOC(=O)CC(C)C [ethyl isovalerate],log P,Table 1A,2.26
same,log P,Table 9,2.26
"ClC1CCCCC1 [chlorocyclohexane (CCH), chlorocyclohexane]",log P,Table 1A,3.36
same,log P,Table 9,3.36
CC(=O)C(C)=O [diacetyl],log P,Table 1A,−1.34
same,log P,Table 9,−1.34
CO [methanol],log P,Table 1A,−0.74
same,log P,Table 9,−0.74
Cc1occc(=O)c1O [maltol],log P,Table 1A,−0.19
same,log P,Table 9,−0.19
COC(=O)[C@H](Cc1ccccc1)NC(=O)[C@@H](N)CC(=O)O [aspartame] (H-Asp-Phe-OMe),log P,Table 1A,0.07
same,log P,Table 9,0.07
C=C(C)[C@H]1CC=C(C)CC1 [limonene],log P,Table 1A,4.83
same,log P,Table 9,4.83
CCOC(=O)CCC(C)=O [ethyl levulinate],log P,Table 1A,0.29
same,log P,Table 9,0.29
CC=O [acetaldehyde],log P,Table 1A,−0.17
same,log P,Table 9,−0.17
O=C(O)[C@@H]1CCCN1 [proline],log P,Table 1A,−2.15
same,log P,Table 9,−2.15
CC1=C(O)C(=O)C(C)O1 (stereo not drawn) [furaneol],log P,Table 1A,0.82
same,log P,Table 9,0.82
CSC [dimethyl sulfide],log P,Table 1A,0.92
same,log P,Table 9,0.92
CCOc1cc(C=O)ccc1O [ethyl vanillin],log P,Table 1A,1.50
same,log P,Table 9,1.50
CCOC(=O)C(C)C [ethyl isobutyrate],log P,Table 1A,1.77
same,log P,Table 9,1.77
Cc1ccc(C(C)C)cc1 [p-cymene],log P,Table 1A,4.10
same,log P,Table 9,4.10
CN(CC(=O)O)C(=N)N [creatine],log P,Table 1A,−3.72
same,log P,Table 9,−3.72
CC(=O)CCc1ccc(O)cc1 [raspberry ketone],log P,Table 1A,1.48
same,log P,Table 9,1.48
C=CC(C)(O)CCC=C(C)C (stereo not drawn) [linalool],log P,Table 9,3.38
CCc1occc(=O)c1O [ethyl maltol],log P,Table 1A,0.30
same,log P,Table 9,0.30
CCOC(=O)C(C)O (stereo not drawn) [ethyl lactate],log P,Table 1A,−0.18
same,log P,Table 9,−0.18
